Measured values as given in patent US5198439A, “Angiotension II antagonizing pyridine derivatives” (Imperial Chemical Industries PLC, priority 1990, dated 1993).

Columns and labels:
AII receptors = target: T1, AII receptors (Cavia porcellus, UniProt Q9WV26); assay: Test A: displacement of radiolabelled AII binding to guinea pig adrenal gland cell surface membranes; details: read-out: IC50 (concentration for 50% displacement of radiolabelled AII binding)
T1 construct: the source of cell surface membranes is the guinea pig adrenal gland; from tissue; host or cells: guinea pig adrenal gland, cell surface membrane fraction
T1 sequence (Q9WV26 1-359): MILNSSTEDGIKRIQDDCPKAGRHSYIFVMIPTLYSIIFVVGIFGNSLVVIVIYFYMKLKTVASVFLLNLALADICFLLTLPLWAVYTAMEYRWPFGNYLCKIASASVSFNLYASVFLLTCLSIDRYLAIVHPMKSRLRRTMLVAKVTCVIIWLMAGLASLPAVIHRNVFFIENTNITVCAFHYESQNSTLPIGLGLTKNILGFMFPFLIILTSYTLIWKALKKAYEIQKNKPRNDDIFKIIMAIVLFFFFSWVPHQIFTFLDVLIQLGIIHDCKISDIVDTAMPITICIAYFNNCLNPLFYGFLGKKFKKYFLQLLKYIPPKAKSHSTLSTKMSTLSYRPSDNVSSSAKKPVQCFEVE
Method: Test A: This in vitro procedure involves the incubation of the test compound initially at a concentration of 100 micromolar (or less) in a buffered mixture containing fixed concentrations of radiolabelled AII and a cell surface membrane fraction prepared from a suitable angiotensin target tissue. In this test, the source of cell surface membranes is the guinea pig adrenal gland which is well known to respond to AII. Interaction of the radiolabelled AII with its receptors (assessed as radiolabel bound to the particulate membrane fraction following removal of unbound radiolabel by a rapid filtration procedure such as is standard in such studies) is antagonized by compounds which also bind to the membrane receptor sites and the degree of antagonism (observed in the test as displacement of membrane-bound radioactivity) is determined readily by comparing the receptor-bound radioactivity in the presence of the test compound at the specified test concentration with a control value determined in the absence of the test compound. Using this procedure compounds showing at least 50% displacement of radiolabelled AII binding at a concentration of 10^-4 M are retested at lower concentrations to determine their potency. […]

[1] = test system: angiotensin II-induced pressor responses; assay: Test C: antagonism of angiotensin II-induced pressor responses in rats; format: in vivo; details: iv, rat, i.v. administration
Method: Test C: This in vivo test involves using terminally-anaesthetised or conscious rats in which an arterial catheter has been implanted under anaesthesia for the measurement of changes in blood pressure. The AII antagonistic effects of the test compound following oral or parenteral administration, are assessed against angiotensin II-induced pressor responses. To ensure that the effect is specific, the effect of the test compound on vasopressin-induced pressor responses may also be determined in the same preparation.

IC50 (AII receptors): 50 nM
SMILES: COC(=O)c1c(OCc2ccc(-c3ccccc3-c3nnn[nH]3)cc2)cc(C)nc1C.Cl [Example 2, methyl 2,6-dimethyl-4-[(2'-(1H-tetrazol-5-yl)biphenyl-4-yl)methoxy]pyridine-3-carboxylate hydrochloride]
ED50 [1]: 0.1 mg/kg
